Test results from PubChem BioAssay (NCI).
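Growth conditions: 96-well plates. Treatment: test compound, 48 hours, 5 concentrations. Analysis: linear interpolation between bracketing concentrations; unreached endpoints set to highest concentration. The concentration for full growth arrest is given as TGI.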

Tests used:
Experiment in all cases: NCI-60 cell line screen, 48 h
OVCAR-5 ovarian = system: OVCAR-5 ovarian
HS 578T breast = system: HS 578T breast
RXF 393 renal = system: RXF 393 renal
HCT-116 colon = system: HCT-116 colon
MOLT-4 leukemia = system: MOLT-4 leukemia
ACHN renal = system: ACHN renal
SNB-75 CNS = system: SNB-75 CNS
SW-620 colon = system: SW-620 colon
UACC-62 melanoma = system: UACC-62 melanoma
SF-268 CNS = system: SF-268 CNS

| Structure (SMILES) | TGI (OVCAR-5 ovarian) [µM] | TGI (HS 578T breast) [µM] | TGI (RXF 393 renal) [µM] | TGI (HCT-116 colon) [µM] | TGI (MOLT-4 leukemia) [µM] | TGI (ACHN renal) [µM] | TGI (SNB-75 CNS) [µM] | TGI (SW-620 colon) [µM] | TGI (UACC-62 melanoma) [µM] | TGI (SF-268 CNS) [µM] |
| --- | --- | --- | --- | --- | --- | --- | --- | --- | --- | --- |
| CC(C)(C)OC(=O)NCCC1CN(C(=O)c2ccccc2)c2ccccc21 (stereo not given) | > 100 | > 100 | 99 | 43 | 74.4 | > 100 | 75.2 | > 100 | 42.3 | > 100 |
| O=C(/C=C/c1csc(-c2ccccc2)n1)NCc1ccc(C(=O)NCc2ccccc2)cc1 | > 100 | > 100 | > 100 | > 100 | > 100 | > 100 | 60.5 | > 100 | > 100 | > 100 |
| CCN(CC)Cc1sc2nc3ccccc3n2c1-c1ccc(OC)cc1 | > 100 | > 100 | 97 | > 100 | > 100 | > 100 | > 100 | > 100 | > 100 | > 100 |
| CC[C@@H](/C=C\CCC(=O)C[C@H](O)CCC=C(C)C)O[Si](C(C)C)(C(C)C)C(C)C | > 100 | > 100 | > 100 | > 100 | > 100 | > 100 | > 100 | > 100 | > 100 | > 100 |
